Results reported in patent US12171732B2, “Compositions and use of N-chlorotaurine for treatment and prevention of respiratory infections” (priority 2021, dated 2024).
Where two headings read alike, the source gives them in different places.

Experiments:
[1] = test system: SARS-CoV-2 B.1.1.7 (Alpha); type: cell-based; conditions: 1% NCT, 37° C.
[2] = test system: SARS-CoV-2 B.1.351 (Beta); type: cell-based; conditions: 1% NCT, 37° C.
SARS-CoV-2 = type: in vivo, human; conditions: Example 3 patient, Day 5, first 1% NCT nasal spray, 2 puffs in each nostril

O=S(=O)(O)CCNCl [NCT, N-chlorotaurine]
reduction of infected cells ([1]; after 1 min): 42-54%
reduction of infected cells ([1]; after 5 min): 50-71%
reduction of infected cells ([1]; after 10 min): 62-99%
reduction of infected cells ([1]; after 20 min): 99-100%
reduction of infected cells ([1]; after 30 min): 100%
reduction of infected cells ([2]; after 1 min (not significant, p=0.313)): 0-48%
reduction of infected cells ([2]; after 5 min): 54-72%
reduction of infected cells ([2]; after 10 min): 82-97%
reduction of infected cells ([2]; after 20 min): 99-100%
reduction of infected cells ([2]; after 30 min): 100%
time until nasal passages cleared and nasal secretion dried up (SARS-CoV-2): ≤ 30 min
